# Source: patent publication US8158170B2 (SNU R&DB Foundation, priority 2006, dated 2012)
# Assays:
# [1] = tested on: acetyl-CoA carboxylase (ACC); settings: activity decreased due to alcohol intake; oral daily for the last week, alone or concurrently; FIG. 9
# Description: (§1) Sodium dodecyl sulfate-polyacrylamide gel electrophoresis (SDS-PAGE) was carried out using Mighty Small II SE 250 apparatus according to the Laemmli UK method (1970). Lysis fraction of liver tissue was diluted in a sample dilution buffer [63 mM Tris (pH 6.8), 10% glycerol, 2% SDS, 0.0013% bromophenol blue, 5% β-mercaptoethanol] and electrophoresis was performed in an electrode buffer (15 g of Tris, 72 g of glycine and 5 g of SDS in 1 L) using 7.5% and 9% gel. After electrophoresis, proteins were transferred to nitrocellulose paper at 190 mAmps for a duration of 1 hour, using a transfer buffer [25 mM Tris, 192 mM glycine, 20% v/v methanol (pH 8.3)]. Anti-fatty acid synthase, anti-iNOS, anti-phospho AMPK-α anti-phospho ACC, anti-Fox01, anti-Fox03 and anti-CYP2E1 were reacted as primary antibodies. […] Change in the expression of proteins was analyzed by determining the color intensity of blots through densitometry. […]
# (§2) The levels of AMPK (AMP-activated protein kinase), a critical enzyme involved in the oxidation of fatty acid, and phosphate form of ACC (acetyl-CoA carboxylase), a substrate of AMPK, in the liver tissue taken in Example 1 were analyzed by Western blotting.
# [2] = tested on: inducible nitric oxide synthase (iNOS); experiment: Expression of iNOS in liver tissue by Western blotting; format: in vivo, rats; settings: expression strongly induced by chronic alcohol intake; oral daily for the last week, alone or concurrently; FIG. 7
# Description: iNOS is an enzyme strongly inducing inflammation in liver tissue. The induction of the expression of iNOS is considered as a primary mechanism of alcohol-induced liver damage (Mckim, et al., Gastroenterology 125:1834-1844, 2003; and Venkatraman A, et al., Hepatology 40: 565-573, 2004).
# [3] = tested on: fatty acid synthase (FAS); experiment: Expression of FAS in liver tissue by Western blotting; format: in vivo, rats; settings: expression decreased by chronic alcohol intake; oral daily for the last week, alone at high dose or concurrently; FIG. 5
# Description: The decreased expression of FAS was not restored by the administration of metadoxine or garlic oil alone at high dose.
# [4] = tested on: AMP-activated protein kinase (AMPK); experiment: Activity (phospho level) of AMPK in liver tissue by Western blotting; format: in vivo, rats; settings: activity decreased due to alcohol intake; oral daily for the last week, alone or concurrently; FIG. 8
# Description: as §1, §2
smiles,measurement,setting,value
"Cc1ncc(CO)c(CO)c1O.O=C1CCC(C(=O)O)N1 [metadoxine, pyridoxol 1-2-pyrrolidone-5-carboxylate]",activity of ACC in liver tissue,[1],no change
same,expression of iNOS in liver tissue,[2],decreased
same,expression of fatty acid synthase (FAS) in liver tissue,[3],not restored
same,activity of AMPK in liver tissue,[4],no change
